Experimental data reported in the NIST ThermoML archive (doi:10.1021/je300590v).

Experiment: xn = mol fraction of the nth substance listed
Settings: Vibrating tube method

[Ar] [argon] + O=C=O
mass density [kg/m3]
Settings | x2 = 0.9276 | x2 = 0.9605
273.15 K, 1000 kPa, Gas | – | 22.5
273.15 K, 1001 kPa, Gas | 21.2 | –
273.15 K, 2000 kPa, Gas | – | 46.1
273.15 K, 2001 kPa, Gas | 44.2 | –
273.15 K, 3000 kPa, Gas | – | 75.5
273.15 K, 3001 kPa, Gas | 72.9 | –
273.15 K, 3600 kPa, Gas | – | 106.3
273.15 K, 3800 kPa, Gas | 104.5 | –
273.15 K, 4901 kPa, Liquid | – | 893.5
273.15 K, 5001 kPa, Liquid | – | 894.8
273.15 K, 5900 kPa, Liquid | 881.4 | –
273.15 K, 6000 kPa, Liquid | 880.2 | –
273.15 K, 6001 kPa, Liquid | – | 905.7
273.15 K, 7000 kPa, Liquid | – | 915.5
273.15 K, 7001 kPa, Liquid | 886.5 | –
273.15 K, 8001 kPa, Liquid | 898 | 924
273.15 K, 9001 kPa, Liquid | 907.8 | –
273.15 K, 9002 kPa, Liquid | – | 932.1
273.15 K, 10001 kPa, Liquid | 917.3 | –
273.15 K, 10002 kPa, Liquid | – | 939.5
273.15 K, 11001 kPa, Liquid | 925.5 | –
273.15 K, 11002 kPa, Liquid | – | 946.4
273.15 K, 12000 kPa, Liquid | 933.4 | 952.9
273.15 K, 13000 kPa, Liquid | 940.6 | 959.1
273.15 K, 14000 kPa, Liquid | – | 965
273.15 K, 14002 kPa, Liquid | 947.4 | –
273.15 K, 15000 kPa, Liquid | 953.8 | –
273.15 K, 15001 kPa, Liquid | – | 970.6
273.15 K, 16001 kPa, Liquid | 959.9 | 975.9
273.15 K, 17000 kPa, Liquid | 965.7 | –
273.15 K, 17002 kPa, Liquid | – | 981
273.15 K, 18001 kPa, Liquid | 971.2 | 986
273.15 K, 19001 kPa, Liquid | 976.5 | –
273.15 K, 19003 kPa, Liquid | – | 990.8
273.15 K, 20000 kPa, Liquid | 981.5 | –
273.15 K, 20001 kPa, Liquid | – | 995.3
283.15 K, 1001 kPa, Gas | 20.1 | 20.9
283.15 K, 2000 kPa, Gas | 42.2 | 43.1
283.15 K, 3001 kPa, Gas | 68.4 | 69.6
283.15 K, 4000 kPa, Gas | – | 104.2
283.15 K, 4001 kPa, Gas | 101.2 | –
283.15 K, 4701 kPa, Gas | – | 144.6
283.15 K, 5000 kPa, Gas | 151.6 | –
283.15 K, 5010 kPa, Gas | 153 | –
283.15 K, 5060 kPa, Gas | 161.6 | –
283.15 K, 6000 kPa, Liquid | – | 827.6
283.15 K, 7001 kPa, Liquid | – | 844.5
283.15 K, 7301 kPa, Liquid | 801.8 | –
283.15 K, 8001 kPa, Liquid | 816.3 | 859.1
283.15 K, 9001 kPa, Liquid | 833.9 | 871.9
283.15 K, 10001 kPa, Liquid | 848.6 | 883.2
283.15 K, 11001 kPa, Liquid | 861.6 | 893.1
283.15 K, 12001 kPa, Liquid | 873 | 902.4
283.15 K, 13000 kPa, Liquid | – | 910.9
283.15 K, 13002 kPa, Liquid | 883.5 | –
283.15 K, 14000 kPa, Liquid | 892.6 | –
283.15 K, 14001 kPa, Liquid | – | 918.7
283.15 K, 15001 kPa, Liquid | 901.4 | –
283.15 K, 15003 kPa, Liquid | – | 926
283.15 K, 16001 kPa, Liquid | 909.4 | 932.8
283.15 K, 17000 kPa, Liquid | – | 939.4
283.15 K, 17001 kPa, Liquid | 916.9 | –
283.15 K, 18000 kPa, Liquid | 924.1 | 945.6
283.15 K, 19001 kPa, Liquid | 930.8 | –
283.15 K, 19002 kPa, Liquid | – | 951.6
283.15 K, 20001 kPa, Liquid | 937.2 | –
283.15 K, 20003 kPa, Liquid | – | 957.3
293.15 K, 1000 kPa, Gas | 19.9 | –
293.15 K, 1001 kPa, Gas | – | 20.4
293.15 K, 2000 kPa, Gas | – | 41
293.15 K, 2001 kPa, Gas | 40.6 | –
293.15 K, 3000 kPa, Gas | 64.4 | –
293.15 K, 3001 kPa, Gas | – | 65
293.15 K, 4000 kPa, Gas | 92.6 | –
293.15 K, 4001 kPa, Gas | – | 94.2
293.15 K, 5000 kPa, Gas | 128.2 | –
293.15 K, 5001 kPa, Gas | – | 132.6
293.15 K, 6000 kPa, Gas | – | 198
293.15 K, 6001 kPa, Gas | 179 | –
293.15 K, 6601 kPa, Gas | 253.1 | –
293.15 K, 7151 kPa, Liquid | – | 728.4
293.15 K, 8002 kPa, Liquid | – | 765.2
293.15 K, 8201 kPa, Liquid | 680.3 | –
293.15 K, 9001 kPa, Liquid | 726.1 | 790.8
293.15 K, 10001 kPa, Liquid | 760.3 | 811.1
293.15 K, 11001 kPa, Liquid | 785 | 827.5
293.15 K, 12000 kPa, Liquid | – | 841.6
293.15 K, 12002 kPa, Liquid | 804.5 | –
293.15 K, 13000 kPa, Liquid | – | 853.5
293.15 K, 13003 kPa, Liquid | 820.2 | –
293.15 K, 14001 kPa, Liquid | – | 864.3
293.15 K, 14002 kPa, Liquid | 834.1 | –
293.15 K, 15000 kPa, Liquid | 846.1 | –
293.15 K, 15001 kPa, Liquid | – | 874.3
293.15 K, 16001 kPa, Liquid | 857.1 | –
293.15 K, 16002 kPa, Liquid | – | 883.4
293.15 K, 17002 kPa, Liquid | 867.1 | 891.9
293.15 K, 18000 kPa, Liquid | 876.3 | –
293.15 K, 18001 kPa, Liquid | – | 899.7
293.15 K, 19001 kPa, Liquid | 884.9 | 906.9
293.15 K, 20001 kPa, Liquid | 892.9 | 913.8
